Legend:
giant foxtail = test: Test B pre/postemergence giant foxtail; type: in vivo, Setaria faberii; conditions: for Giant foxtail plant response rating (0 to 10 scale): 0 is no effect
Method in brief: (§1)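 Test chemicals in a non-phytotoxic solvent mixture with surfactant were sprayed preemergence onto planted seeds and postemergence onto plants 2 to 18 cm tall (1- to 4-leaf stage). After twelve to sixteen days in a greenhouse, injury was visually rated against untreated controls from 0 (no effect) to 10 (complete control).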

sugar beet = test: Test B pre/postemergence sugar beet; type: in vivo, Beta vulgaris; conditions: for Sugarbeets plant response rating (0 to 10 scale): 0 is no effect
Method in brief: as §1

crabgrass = test: Test B pre/postemergence crabgrass; type: in vivo, Digitaria sanguinalis; conditions: for Crabgrass plant response rating (0 to 10 scale): 0 is no effect
Method in brief: as §1

soybean = test: Test B pre/postemergence soybean; type: in vivo, Glycine max; conditions: for Soybean plant response rating (0 to 10 scale): 0 is no effect
Method in brief: as §1

[1] = Postemergence, Rate 125 g/ha, scale of 0 to 10 where 0 is no effect and 10 is complete control
[2] = Postemergence, Rate 1000 g/ha, scale 0 to 10 (0 no effect, 10 complete control)
[3] = Preemergence, Rate 62 g/ha, scale 0 to 10 (0 no effect, 10 complete control)
[4] = Preemergence, Rate 125 g/ha, 10 is complete control
[5] = Preemergence, Rate 250 g/ha, scale 0 to 10, 0 is no effect, 10 is complete control
[6] = Preemergence, Rate 500 g/ha, scale 0 to 10 (0 no effect, 10 complete control)
[7] = Rate 62 g/ha, Postemergence, scale of 0 to 10 where 0 is no effect and 10 is complete control
[8] = Rate 250 g/ha, Postemergence, scale 0 to 10, 0 is no effect, 10 is complete control
[9] = Rate 500 g/ha, Postemergence, scale 0 to 10
[10] = Rate 1000 g/ha, Preemergence, scale 0 to 10 (0 no effect, 10 complete control)
[11] = Preemergence, Rate 31 g/ha, visual rating, scale 0 to 10 (0 no effect, 10 complete control)
[12] = Rate 31 g/ha, Postemergence, scale 0 to 10
[13] = Preemergence, Rate 62 g/ha, scale of 0 to 10 where 0 is no effect and 10 is complete control

| Structure (SMILES) | Giant foxtail plant response rating (giant foxtail; [1]) | Giant foxtail plant response rating (0 to 10 scale) (giant foxtail; [4]) | Giant foxtail plant response rating (giant foxtail; [5]) | Giant foxtail plant response rating (giant foxtail; [7]) | Plant response rating, Giant foxtail (giant foxtail; [8]) | Sugarbeets plant response rating (sugar beet; [1]) | Sugarbeets plant response rating (0 to 10 scale) (sugar beet; [4]) | Sugarbeets plant response rating (sugar beet; [5]) | Sugarbeets plant response rating (sugar beet; [7]) | Plant response rating, Sugarbeets (sugar beet; [8]) | Crabgrass plant response rating (crabgrass; [1]) | Crabgrass plant response rating (0 to 10 scale) (crabgrass; [4]) | Crabgrass plant response rating (crabgrass; [5]) | Crabgrass plant response rating (crabgrass; [7]) | Plant response rating, Crabgrass (crabgrass; [8]) | Soybean plant response rating (soybean; [1]) | Soybean plant response rating (0 to 10 scale) (soybean; [4]) | Soybean plant response rating (soybean; [5]) | Soybean plant response rating (soybean; [7]) | Plant response rating, Soybean (soybean; [8]) | also measured |
| --- | --- | --- | --- | --- | --- | --- | --- | --- | --- | --- | --- | --- | --- | --- | --- | --- | --- | --- | --- | --- | --- |
| C=CCn1c(=O)on(C(=O)N(c2ccc(F)cc2F)C2CC2)c1=O [Compound 127] | 0 | 0 | 2 | 0 | 0 | 0 | 0 | 0 | 0 | 0 | 0 | 0 | 0 | 0 | 0 | 0 | 0 | 0 | 0 | 0 | Giant foxtail plant response rating (giant foxtail; [2]): 0; Giant foxtail plant response rating (giant foxtail; [3]): 0; Giant foxtail plant response rating (giant foxtail; [6]): 4; Giant foxtail plant response rating (giant foxtail; [9]): 0; Plant response rating, Giant foxtail (giant foxtail; [10]): 9; Sugarbeets plant response rating (sugar beet; [2]): 0; Sugarbeets plant response rating (sugar beet; [3]): 0; Sugarbeets plant response rating (sugar beet; [6]): 0; Sugarbeets plant response rating (sugar beet; [9]): 0; Plant response rating, Sugarbeets (sugar beet; [10]): 0; Crabgrass plant response rating (crabgrass; [2]): 0; Crabgrass plant response rating (crabgrass; [3]): 0; Crabgrass plant response rating (crabgrass; [6]): 0; Crabgrass plant response rating (crabgrass; [9]): 0; Plant response rating, Crabgrass (crabgrass; [10]): 7; Soybean plant response rating (soybean; [2]): 0; Soybean plant response rating (soybean; [3]): 0; Soybean plant response rating (soybean; [6]): 0; Soybean plant response rating (soybean; [9]): 0; Plant response rating, Soybean (soybean; [10]): 0 |
| CC(C)N(C(=O)n1oc(=O)n(Cc2ccccc2Cl)c1=O)C1=CCCCC1 [Compound 145] | 0 | 3 | 5 | 0 | 2 | 0 | 0 | 0 | 0 | 0 | 3 | 4 | 4 | 2 | 8 | 3 | 0 | 0 | 3 | 4 | Giant foxtail plant response rating (giant foxtail; [3]): 0; Giant foxtail plant response rating (giant foxtail; [6]): 8; Giant foxtail plant response rating (giant foxtail; [9]): 4; Sugarbeets plant response rating (sugar beet; [3]): 0; Sugarbeets plant response rating (sugar beet; [6]): 3; Sugarbeets plant response rating (sugar beet; [9]): 0; Crabgrass plant response rating (crabgrass; [3]): 0; Crabgrass plant response rating (crabgrass; [6]): 8; Crabgrass plant response rating (crabgrass; [9]): 8; Soybean plant response rating (soybean; [3]): 0; Soybean plant response rating (soybean; [6]): 0; Soybean plant response rating (soybean; [9]): 5 |
| Cc1noc(C)c1-n1c(=O)on(C(=O)N(c2ccc(F)cc2F)C(C)C)c1=O [Compound 156] | 0 | 2 | 7 | 0 | 0 | 0 | 0 | 0 | 0 | 0 | 0 | 4 | 6 | 0 | 0 | 1 | 0 | 0 | 1 | 1 | Giant foxtail plant response rating (giant foxtail; [11]): 0; Giant foxtail plant response rating (giant foxtail; [3]): 0; Giant foxtail plant response rating (giant foxtail; [12]): 0; Sugarbeets plant response rating (sugar beet; [11]): 0; Sugarbeets plant response rating (sugar beet; [3]): 0; Crabgrass plant response rating (crabgrass; [11]): 0; Crabgrass plant response rating (crabgrass; [3]): 0; Crabgrass plant response rating (crabgrass; [12]): 0; Soybean plant response rating (soybean; [11]): 0; Soybean plant response rating (soybean; [3]): 0 |
| CCN(Cc1ccccc1)C(=O)n1oc(=O)n(C(C)C)c1=O [Compound 166] | 0 | 5 | 5 | 0 | 1 | 0 | 0 | 0 | 0 | 0 | 1 | 4 | 7 | 0 | 3 | 0 | 0 | 0 | 0 | 2 | Giant foxtail plant response rating (giant foxtail; [13]): 3; Giant foxtail plant response rating (giant foxtail; [6]): 7; Giant foxtail plant response rating (giant foxtail; [9]): 4; Sugarbeets plant response rating (sugar beet; [13]): 0; Sugarbeets plant response rating (sugar beet; [6]): 0; Sugarbeets plant response rating (sugar beet; [9]): 0; Crabgrass plant response rating (crabgrass; [13]): 4; Crabgrass plant response rating (crabgrass; [6]): 7; Crabgrass plant response rating (crabgrass; [9]): 4; Soybean plant response rating (soybean; [13]): 0; Soybean plant response rating (soybean; [6]): 2; Soybean plant response rating (soybean; [9]): 3 |
| Cc1ccccc1-n1c(=O)on(C(=O)N(c2cccc(F)c2F)C(C)C)c1=O [Compound 171] | 0 | 7 | 10 | 0 | 0 | 0 | 0 | 0 | 0 | 2 | 0 | 7 | 10 | 0 | 2 | 1 | 0 | 0 | 1 | 1 | Giant foxtail plant response rating (giant foxtail; [13]): 5; Giant foxtail plant response rating (giant foxtail; [6]): 10; Giant foxtail plant response rating (giant foxtail; [9]): 0; Sugarbeets plant response rating (sugar beet; [13]): 0; Sugarbeets plant response rating (sugar beet; [6]): 0; Sugarbeets plant response rating (sugar beet; [9]): 2; Crabgrass plant response rating (crabgrass; [13]): 2; Crabgrass plant response rating (crabgrass; [6]): 10; Crabgrass plant response rating (crabgrass; [9]): 7; Soybean plant response rating (soybean; [13]): 0; Soybean plant response rating (soybean; [6]): 0; Soybean plant response rating (soybean; [9]): 3 |

Reference: patent US6737383B1, “Herbicidal oxadiazolidines” (priority 1999, dated 2004)
